Assay results from PMC10276154, “Development of the nonreceptor tyrosine kinase FER-targeting PROTACs as a potential strategy for antagonizing ovarian cancer cell motility and invasiveness” (The Journal of Biological Chemistry, 2023).

Target: FER (Homo sapiens, UniProt P16591)
Assay: pY402-FER autophosphorylation immunoblot in HEK293FT cells transfected with pLV-FER, […] h
Format: cell-based

Sequence of FER (P16591 whole entry): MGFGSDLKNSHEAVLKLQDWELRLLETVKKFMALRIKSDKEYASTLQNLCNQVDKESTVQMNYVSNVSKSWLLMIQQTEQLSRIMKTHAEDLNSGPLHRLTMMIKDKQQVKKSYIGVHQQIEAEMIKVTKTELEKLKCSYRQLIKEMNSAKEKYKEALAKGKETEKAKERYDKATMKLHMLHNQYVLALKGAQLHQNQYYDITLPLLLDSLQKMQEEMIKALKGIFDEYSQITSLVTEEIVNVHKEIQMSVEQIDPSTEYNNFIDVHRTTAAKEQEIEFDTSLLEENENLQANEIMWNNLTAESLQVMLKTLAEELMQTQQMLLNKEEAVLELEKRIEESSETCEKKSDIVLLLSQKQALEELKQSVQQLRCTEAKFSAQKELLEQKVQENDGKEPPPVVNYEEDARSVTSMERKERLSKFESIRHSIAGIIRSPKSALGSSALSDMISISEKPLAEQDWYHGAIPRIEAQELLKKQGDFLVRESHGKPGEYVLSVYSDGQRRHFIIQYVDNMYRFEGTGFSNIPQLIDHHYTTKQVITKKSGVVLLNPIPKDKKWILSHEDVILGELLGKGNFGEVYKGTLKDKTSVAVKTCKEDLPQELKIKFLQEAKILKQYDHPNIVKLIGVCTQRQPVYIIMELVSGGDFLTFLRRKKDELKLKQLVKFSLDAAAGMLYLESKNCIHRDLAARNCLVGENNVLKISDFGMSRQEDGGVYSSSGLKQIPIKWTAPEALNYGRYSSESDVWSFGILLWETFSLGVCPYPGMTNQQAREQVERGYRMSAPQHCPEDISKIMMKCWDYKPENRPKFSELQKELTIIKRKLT

- IC50: 0.138 µM
Compound: COc1cc(N2CCC(N3CCN(C)CC3)CC2)ccc1Nc1ncc(Cl)c(Nc2ccccc2P(C)(C)=O)n1 [brigatinib]
